The source of these data is ChEMBL document CHEMBL1151642, “Dictyol H, a New Tricyclic Diterpenoid from the Brown Seaweed Dictyota dentata” (J Nat Prod, 1985).

The structures appear in SMILES notation. Values after ≈ are worked out from the molar mass of the structure shown. Active and inactive are the calls of the source. No cut-off for these calls is given here.

Assay [1] can be described thus: Antitumor activity against human 9KB cells. The class given is functional, cell-based.
The test system of another assay is Pseudomonas aeruginosa. The assay can be described thus: Antimicrobial activity against Pseudomonas aeruginosa at 100 ug. Format: functional, organism-based.
A further assay concerns Escherichia coli. In words: Antimicrobial activity against Escherichia coli at 100 ug. The class given is functional, organism-based.

In general, IC50 refers to the concentration that gives 50% inhibition. A higher IC50 goes with lower potency.

On to `C=C1CC[C@@H]([C@@]2(C)CC[C@H](C(C)(C)OC(C)=O)O2)[C@@H](O)[C@H]2C(C)=CC[C@@H]12` [DICTYOL H], for which the IC50 in assay [1] was 22 µg/mL (≈ 60.7 µM). Further, the result in the assay on Pseudomonas aeruginosa and with Escherichia coli was inactive.
